Data reported in ChEMBL document CHEMBL3596137, “N-Substituted pyrazole-3-carboxamides as inhibitors of human 15-lipoxygenase” (Bioorg Med Chem Lett, 2015).
pIC50: −log10 of the molar value. One block for each compound: values may come before it. Active and inactive are the calls of the source. The calls are words filed in the database; no cut-off is given here.

Tests used:
[1] = biological target: T1, Prostaglandin G/H synthase 2 (Homo sapiens) (UniProt P35354); assay: Inhibition of COX2 (unknown origin) using arachidonic acid as substrate at 10 uM
T1 sequence (whole entry): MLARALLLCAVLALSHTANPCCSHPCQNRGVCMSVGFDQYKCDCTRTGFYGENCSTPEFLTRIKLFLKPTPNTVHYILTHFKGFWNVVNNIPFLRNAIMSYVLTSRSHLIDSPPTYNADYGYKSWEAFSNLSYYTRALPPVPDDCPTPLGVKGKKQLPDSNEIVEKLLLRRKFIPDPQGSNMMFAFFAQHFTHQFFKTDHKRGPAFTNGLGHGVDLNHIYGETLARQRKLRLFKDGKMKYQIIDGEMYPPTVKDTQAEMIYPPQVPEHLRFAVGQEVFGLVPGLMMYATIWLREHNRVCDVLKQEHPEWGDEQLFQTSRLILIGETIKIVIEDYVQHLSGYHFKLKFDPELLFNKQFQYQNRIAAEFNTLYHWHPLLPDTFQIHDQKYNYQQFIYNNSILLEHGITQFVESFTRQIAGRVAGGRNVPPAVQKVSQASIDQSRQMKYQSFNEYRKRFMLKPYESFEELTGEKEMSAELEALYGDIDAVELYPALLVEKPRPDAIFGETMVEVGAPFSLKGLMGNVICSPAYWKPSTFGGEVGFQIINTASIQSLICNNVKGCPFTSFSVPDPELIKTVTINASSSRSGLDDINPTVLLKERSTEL

[2] = biological target: T2, Polyunsaturated fatty acid 5-lipoxygenase (Homo sapiens) (UniProt P09917); assay: Inhibition of 5-LOX (unknown origin) using arachidonic acid as substrate at 10 uM
T2 sequence (whole entry): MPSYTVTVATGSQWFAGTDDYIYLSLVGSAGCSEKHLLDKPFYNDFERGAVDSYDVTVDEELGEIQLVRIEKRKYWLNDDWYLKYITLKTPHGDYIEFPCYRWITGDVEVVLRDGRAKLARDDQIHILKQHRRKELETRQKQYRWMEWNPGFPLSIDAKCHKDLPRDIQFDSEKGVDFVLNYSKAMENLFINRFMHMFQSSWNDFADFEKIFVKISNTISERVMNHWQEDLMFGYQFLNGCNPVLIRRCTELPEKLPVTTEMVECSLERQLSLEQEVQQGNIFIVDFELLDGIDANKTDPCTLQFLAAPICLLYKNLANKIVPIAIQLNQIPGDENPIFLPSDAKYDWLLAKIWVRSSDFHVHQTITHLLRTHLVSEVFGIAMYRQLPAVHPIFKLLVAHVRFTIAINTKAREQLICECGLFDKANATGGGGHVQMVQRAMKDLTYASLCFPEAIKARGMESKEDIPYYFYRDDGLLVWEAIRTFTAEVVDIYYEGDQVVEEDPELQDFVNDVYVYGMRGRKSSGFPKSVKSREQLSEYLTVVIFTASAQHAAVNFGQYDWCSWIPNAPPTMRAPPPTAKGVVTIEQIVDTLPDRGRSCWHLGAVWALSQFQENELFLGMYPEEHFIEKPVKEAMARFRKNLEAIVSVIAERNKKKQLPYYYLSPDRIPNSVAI

[3] = biological target: T2, Polyunsaturated fatty acid 5-lipoxygenase (Homo sapiens); assay: Inhibition of 5-LOX (unknown origin) using arachidonic acid as substrate at 10 uM by cell based assay
[4] = biological target: T3, Polyunsaturated fatty acid lipoxygenase ALOX12 (Homo sapiens) (UniProt P18054); assay: Inhibition of 12-LOX (unknown origin) using arachidonic acid as substrate at 10 uM
T3 sequence (whole entry): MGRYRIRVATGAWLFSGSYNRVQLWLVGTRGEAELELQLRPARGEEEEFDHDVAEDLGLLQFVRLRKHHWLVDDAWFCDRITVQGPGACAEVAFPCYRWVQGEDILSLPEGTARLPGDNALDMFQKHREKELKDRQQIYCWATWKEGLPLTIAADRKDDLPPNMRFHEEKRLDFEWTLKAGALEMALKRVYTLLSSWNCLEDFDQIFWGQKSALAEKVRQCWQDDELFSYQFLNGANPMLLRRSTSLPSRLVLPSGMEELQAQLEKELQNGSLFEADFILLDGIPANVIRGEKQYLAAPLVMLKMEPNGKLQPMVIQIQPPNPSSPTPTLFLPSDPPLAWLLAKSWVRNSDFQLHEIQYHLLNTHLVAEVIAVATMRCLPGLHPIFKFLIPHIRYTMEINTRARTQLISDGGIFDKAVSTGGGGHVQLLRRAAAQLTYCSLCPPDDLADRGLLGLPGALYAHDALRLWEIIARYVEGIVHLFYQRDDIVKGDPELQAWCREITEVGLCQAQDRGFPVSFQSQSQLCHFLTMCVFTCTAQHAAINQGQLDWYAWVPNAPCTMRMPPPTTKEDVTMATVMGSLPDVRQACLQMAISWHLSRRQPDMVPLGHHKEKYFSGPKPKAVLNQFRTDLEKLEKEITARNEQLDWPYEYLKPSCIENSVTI

[5] = biological target: Prostaglandin G/H synthase 1 (Homo sapiens) (UniProt P23219); assay: Inhibition of COX1 (unknown origin) using arachidonic acid as substrate at 10 uM
[6] = biological target: T4, Polyunsaturated fatty acid lipoxygenase ALOX15 (Homo sapiens, UniProt P16050); assay: Inhibition of human 15-LOX-1 using arachidonic acid as substrate by cell based assay
T4 sequence (P16050 whole entry): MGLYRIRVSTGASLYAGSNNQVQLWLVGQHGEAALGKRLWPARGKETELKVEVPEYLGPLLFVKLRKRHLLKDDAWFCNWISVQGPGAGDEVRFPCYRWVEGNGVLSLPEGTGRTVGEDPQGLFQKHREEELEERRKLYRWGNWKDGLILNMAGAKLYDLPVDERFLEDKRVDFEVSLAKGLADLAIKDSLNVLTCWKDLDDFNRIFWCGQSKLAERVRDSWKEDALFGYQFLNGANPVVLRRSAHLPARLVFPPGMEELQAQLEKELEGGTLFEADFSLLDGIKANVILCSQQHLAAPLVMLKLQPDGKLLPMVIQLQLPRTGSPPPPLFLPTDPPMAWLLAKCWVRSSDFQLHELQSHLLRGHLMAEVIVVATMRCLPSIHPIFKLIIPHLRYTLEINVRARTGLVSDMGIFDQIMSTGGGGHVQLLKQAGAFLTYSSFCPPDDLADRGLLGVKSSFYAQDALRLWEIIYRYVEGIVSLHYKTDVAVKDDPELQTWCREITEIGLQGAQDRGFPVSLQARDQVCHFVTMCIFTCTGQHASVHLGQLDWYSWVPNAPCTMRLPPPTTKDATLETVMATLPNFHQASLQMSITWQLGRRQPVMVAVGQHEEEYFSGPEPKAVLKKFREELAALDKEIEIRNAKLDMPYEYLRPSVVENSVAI

[7] = biological target: T4, Polyunsaturated fatty acid lipoxygenase ALOX15; assay: Inhibition of human 15-LOX-1 using arachidonic acid as substrate

Prostaglandin G/H synthase 1 (Homo sapiens), sequence (P23219 whole entry): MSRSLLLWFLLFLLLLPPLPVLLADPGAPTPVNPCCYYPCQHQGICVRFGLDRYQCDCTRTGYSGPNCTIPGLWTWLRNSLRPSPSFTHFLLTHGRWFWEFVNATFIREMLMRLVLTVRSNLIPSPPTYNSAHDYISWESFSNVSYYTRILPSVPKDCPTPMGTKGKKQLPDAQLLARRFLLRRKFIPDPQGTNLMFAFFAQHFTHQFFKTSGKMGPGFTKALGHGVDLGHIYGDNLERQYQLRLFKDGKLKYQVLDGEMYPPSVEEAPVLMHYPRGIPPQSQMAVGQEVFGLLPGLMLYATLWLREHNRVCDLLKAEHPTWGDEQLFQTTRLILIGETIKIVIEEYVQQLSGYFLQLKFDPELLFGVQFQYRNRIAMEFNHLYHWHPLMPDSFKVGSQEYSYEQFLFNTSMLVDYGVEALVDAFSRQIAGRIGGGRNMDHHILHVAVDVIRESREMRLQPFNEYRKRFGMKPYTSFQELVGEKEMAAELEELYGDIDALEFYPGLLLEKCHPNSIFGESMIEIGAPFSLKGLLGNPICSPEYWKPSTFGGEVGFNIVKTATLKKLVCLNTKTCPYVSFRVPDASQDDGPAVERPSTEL

- inhibition [1]: inactive
- inhibition [2]: 8%
- inhibition [3]: 16%
- inhibition [4]: 18%
- inhibition [5]: 11%
Structure (SMILES): O=C(Nc1ccccc1Cl)c1ccn(C(=O)c2cccc(Cl)c2)n1

- IC50 [6]: Not Active
- IC50 [7]: Not Active
Structure (SMILES): CCCCCCNC(=O)n1cc(CCCC)c(C(=O)Nc2ccc(F)cc2Cl)n1

- IC50 [6]: Not Active
Structure (SMILES): CN(C)S(=O)(=O)n1ccc(C(=O)Nc2ccc(F)cc2Cl)n1

- pIC50 ([6]; read-out: IC50): 5.97
- pIC50 ([7]; read-out: IC50): 5.71
Structure (SMILES): O=C(Nc1ccc(F)cc1Cl)c1ccn(S(=O)(=O)c2cccc(C(F)(F)F)c2)n1

- IC50 [6]: Not Active
Structure (SMILES): O=C(Nc1ccc(F)cc1Cl)c1ccn(C(=O)Cc2ccccc2)n1

- IC50 [6]: Not Active
Structure (SMILES): Cn1cc(Cl)c(C(=O)Nc2ccc(F)cc2Cl)n1
